Reference: a melting point compilation (Tetko et al.; mined from patent text by program, amines drawn as free bases though some values may be those of a salt)

SMILES | melting point
CC(=O)Oc1c(C)c(C)c2c(c1C)CCC(C)(CCBr)O2 (stereo unspecified) | 102 to 103 °C
CCOC(=O)COc1cccc(Br)c1CC(=O)O | 181 to 183 °C
CSC(=NC#N)N(C)N | 69 to 71 °C
CC(C)Nc1cccnc1N1CCN(C(=O)c2ccc(C(=O)N(CCO)CCO)cc2)CC1 | 161 to 162 °C
O=C(c1ccccc1)c1cc(Cl)ccc1C#CCN1C(=O)c2ccccc2C1=O | 130 to 133 °C
CC#CCOc1ccc(S(=O)(=O)C2(C(=O)O)CCCN(Cc3ccc(Cl)cc3)C2)cc1 (stereo unspecified) | 115 °C
CCON=C(C(C)=NO)c1ccc(OC(C)c2ccc(Cl)cc2)cc1 (stereo unspecified) | 132 to 134 °C
CCOc1cc2ncc(C#N)c(Nc3ccc(F)cc3C)c2cc1OCC | 105 to 108 °C
O=C(CCCl)c1ccc2c(c1)CCC2 | 63.5 to 65.1 °C
N#Cc1ccsc1-c1ccc(CBr)cc1 | 80 °C
O=C1CCc2cccc3c2N1C(=O)C3 | 194 to 197 °C
COc1ccc2[nH]cc(/C=C/c3cc(/C=C/c4ccc(OCc5ccccn5)cc4OC)[nH]n3)c2c1 | 189 to 195 °C
C=CCc1cc(CC(N)=O)ccc1OCC(O)CNCCC(=O)OCC (stereo unspecified) | 98 °C
COc1ccc(-c2c3c(cc4ccc(OC)c(OC)c24)C(=O)NC3)cc1 | 258 to 260 °C
C=C(C)C(=O)NCc1cc(C)c(O)c(C)c1 | 136 to 138 °C
CN(C)C(=O)CNC(=O)c1ccc(-c2ccc3nnn(Cc4ccc5ncccc5c4)c3n2)cc1F | 177 to 179 °C
O=C(O)c1cn(CCc2ccccc2)c2cc(C3CCCC3)nn2c1=O | 198 to 200 °C
O=c1[nH]c2cc(C(F)(F)F)cc3c2n(c1=O)C(P(=O)(O)O)CC3 (stereo unspecified) | 262 °C
Nc1ccn(C2C=CC(CO)O2)c(=O)n1 (stereo unspecified) | 167 to 169 °C
CC(CN1CC(=O)N(CN2CCN(c3ccccc3)CC2)C(=O)C1)N1CC(=O)N(CN2CCN(c3ccccc3)CC2)C(=O)C1 (stereo unspecified) | 94 to 101 °C
O=C1NC(=O)C2(c3cc(Oc4ccc([N+](=O)[O-])cc4)c(Cl)cc3F)CCCCC12 (stereo unspecified) | 126 °C
CCCCC1=CC(=C(Br)Br)N(Cc2ccccc2)C1=O | 56 to 58 °C
COc1cc(Nc2nccc(-c3ccc(N4CCN(CCCN5C(=O)c6ccccc6C5=O)CC4)nc3)n2)cc(OC)c1OC | 105 to 106 °C
COc1cc(OC)c2c(=O)[nH]c(-c3cc(C)c(O)c(C)c3)nc2n1 | 297 to 299 °C

SMILES | melting point
CCCc1cc2nc(=O)[nH]n2c(C)n1 | 173 °C
CCCCCCC(C)(C)c1cc(OC)c(C2C(O)[C@]3(C)CC[C@H]2C3(C)C)c(OC)c1 (stereo partly specified) | 96 to 98 °C
O=C(c1ccc2nc(C3CC3)n(Cc3ccccc3Cl)c2c1)C1CNCCO1 (stereo unspecified) | 193 to 195 °C
CC(C)(C)C(O)C(Cn1ccnc1)Oc1ccc(Cl)cc1 (stereo unspecified) | 163 to 170 °C
O=C1NCN(c2ccccc2)C12CCN(C[C@@H]1CCc3ccc(Cl)cc3[C@H]1O)CC2 (relative stereo) | 248 to 249 °C
CCOP(=O)(/C=C/c1cn(-c2ccccc2)nc1OCc1ccccc1)OCC | 89 to 90 °C
CC1(CCC(O)(c2ccccc2)c2ccccc2)CCCCC12OCCO2 (stereo unspecified) | 115 to 117 °C
CCCCNS(=O)(=O)C[C@@H](O)C(O)[C@@H](CC1CCCCC1)NC(=O)[C@@H](N)CC(C)C (relative stereo) | 99 to 109 °C
NS(=O)(=O)c1ccc(N2CCN(CC[C@H]3OCCc4ccccc43)CC2)cc1 | 189 to 190 °C
N=c1sc2cc(OC(F)(F)F)ccc2n1CCS(=O)c1ccncc1 (stereo unspecified) | 194 °C
Cc1c(C)c2c(c(C)c1O)CCC(C)(CNCCc1ccc(N=C(N)c3cccs3)cc1)O2 (stereo unspecified) | > 230 °C
O=C(c1ccc(F)c(Cl)c1)c1ccc(F)c(Cl)c1 | 93 °C
Cc1ccn2c(C)c(-c3ccc4c(c3)NC(=O)CO4)nc2c1 | 239 to 241 °C
O=C(O)CC1C(CCl)=CCC1O (stereo unspecified) | 33 to 34 °C
CC1(C)OC(=O)Nc2ccc(-c3cc(Cl)cc(Cl)c3)cc21 | 245 to 246 °C
CCCCCC(=O)c1cc2c(cc1/C=C/c1ccc(C(=O)O)cc1)C(C)(C)CCC2(C)C | 118 to 119 °C
N=C(N)NC(=O)OCc1ccccc1 | 120 to 122 °C
ON=Cc1ccc(-c2ccc(O)cc2)c2ccoc12 | 219 to 220 °C
CSc1ncnn1C[C@]1(c2ccc(F)c(F)c2)O[C@@H]1c1ccccc1C(F)(F)F (relative stereo) | 83 to 85 °C
Cc1cc(-c2nc3cccnn3c2-c2ccnc(NC(=O)c3ccc(C(F)(F)F)nc3)c2)ccc1F | 225 to 226 °C
O=c1ccc(C(F)(F)F)cn1-c1ccc(NCCCN2CCCCC2)cc1Cl | 112 to 115 °C
CCc1nnc(CCCOc2c(C)cc(-c3noc(C(F)F)n3)cc2C)s1 | 83 to 84 °C
COC(=O)C1=C(C)NC(C)=C(C(=O)OCCN2CCN(C(c3ccc(F)cc3)c3ccc(F)cc3)CC2)C1c1cccc(Cl)c1Cl (stereo unspecified) | 90 to 93 °C

Further lines, results first:

melting point | SMILES
68 to 71 °C | COc1ccc(C(CCCCC(=O)O)C2=C(C)C(=O)c3ccccc3C2=O)cc1 (stereo unspecified)
143 to 145 °C | CCOC(=O)c1cn2c(Cl)cccc2n1
178 °C | CS(=O)(=O)C(=C1CN(C(c2ccccc2)c2ccccc2)C1)c1ccc2ccccc2c1
235 to 237 °C | Cc1nc2cc(Nc3nccc(-c4ccc(Cl)nc4)n3)ccc2s1
148 to 150 °C | Cc1nc2ccccc2c(=O)n1CCCOS(C)(=O)=O
162 °C | Cc1ccc(OC(=O)C=Cc2ccccc2)c(C(=O)O)c1
75 °C | CCOC(=O)c1nc2ccc(OC)cc2nc1Cl
75 °C | CCCCN1CCC(C(=O)NO)(S(=O)(=O)c2ccc(OC)cc2)CC1
57 to 58 °C | CCOC(=O)c1ccc(C)nc1
184 °C | CC(=O)Nc1ccc(S(=O)(=O)N2CCN(C)CC2)cc1
284 to 285 °C | COc1ccc2nc3ccc(C#N)cn3c(=O)c2c1
166 to 167 °C | Cc1ccc(S(=O)(=O)Nc2ccc([N+](=O)[O-])cc2C#N)cc1
136 to 138 °C | COc1nc(C)cnc1NS(=O)(=O)c1ccccc1I
231 to 232 °C | Cn1c(C(F)(F)F)cc(=O)n(-c2cc(S(=O)(=O)NC(=O)OCc3ccccc3)c(Cl)cc2F)c1=O
100 to 102 °C | COc1cnnc(Oc2ccnc(OC(C)C(F)(F)F)c2)c1 (stereo unspecified)
164 to 165 °C | O=C(Cc1ccccc1Nc1c(Cl)cccc1Cl)NO
204 to 205 °C | Cc1cccc2c(=O)nc(-c3cccc(C(=O)OC(C)(C)C)n3)sc12
107 to 110 °C | CC(=O)OC1(Cc2ccccn2)C(=O)N(N2CCOCC2)c2ccccc21 (stereo unspecified)
92 to 102 °C | Cc1noc(NS(=O)(=O)c2ccccc2-c2ccc(-c3ncco3)cc2CN(C)C(=O)C2CC2)c1C
166 to 169 °C | Cc1ccc(-c2cc(CO)nn2-c2ccc(S(N)(=O)=O)cc2)cc1
166 to 167 °C | Cc1c(C(O)Cc2ccccc2)cc(I)[nH]c1=O (stereo unspecified)
174 to 177 °C | CCCc1nc(C(C)(O)CC)c(C(=O)O)n1Cc1ccc(-c2ccccc2-c2nnn[nH]2)cc1 (stereo unspecified)
167 °C | COc1ccc(-n2c(-c3ccccc3)cnc2S)cc1
189 to 190 °C | Oc1ccc(-c2n[nH]c3ccccc23)cc1
